Laboratory results reported in PubChem BioAssay (NCI).
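Dose response: 5 concentrations. Exposure: 48 h. Format: 96-well plates. Endpoint: linear interpolation; highest concentration if not reached. GI50 is the concentration that inhibits growth by half. At the TGI there is no net growth.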

Key:
Assay in all cases: NCI-60 cell line screen, 48 h
[1] = tested on: BT-549 breast
[2] = tested on: CCRF-CEM leukemia
[3] = tested on: DU-145 prostate
[4] = tested on: HL-60(TB) leukemia
[5] = tested on: RPMI-8226 leukemia
[6] = tested on: SK-MEL-2 melanoma
[7] = tested on: 786-0 renal
[8] = tested on: A498 renal
[9] = tested on: A549 NSCLC
[10] = tested on: CAKI-1 renal
[11] = tested on: EKVX NSCLC
[12] = tested on: HCC-2998 colon
[13] = tested on: HOP-92 NSCLC
[14] = tested on: HS 578T breast
[15] = tested on: HT29 colon
[16] = tested on: IGROV1 ovarian
[17] = tested on: K-562 leukemia
[18] = tested on: KM12 colon
[19] = tested on: MCF7 breast
[20] = tested on: MDA-MB-231 breast
[21] = tested on: MOLT-4 leukemia
[22] = tested on: NCI-H226 lung
[23] = tested on: NCI-H23 lung
[24] = tested on: NCI-H460 lung
[25] = tested on: NCI-H522 lung
[26] = tested on: NCI/ADR-RES ovarian
[27] = tested on: OVCAR-3 ovarian
[28] = tested on: OVCAR-5 ovarian
[29] = tested on: OVCAR-8 ovarian
[30] = tested on: PC-3 prostate
[31] = tested on: SF-268 CNS
[32] = tested on: SK-OV-3 ovarian
[33] = tested on: SN12C renal
[34] = tested on: SNB-19 CNS
[35] = tested on: SNB-75 CNS
[36] = tested on: SW-620 colon
[37] = tested on: T-47D breast
[38] = tested on: TK-10 renal
[39] = tested on: U251 CNS
[40] = tested on: UO-31 renal

`N=C(N)c1ccc(-c2ccc(-c3ccc(Cl)c(Cl)c3)s2)cc1` was tested. Which GI50 [1] did it give?
The GI50 was 6.39 µM.

And the TGI [1]?
The TGI was 50 µM.

What about the GI50 [2] of the same molecule?
Its GI50 is 1.54 µM.

And the TGI [2]?
Its TGI is 4.26 µM.

And the GI50 [3]?
The GI50 was 1.75 µM.

And the TGI [3]?
Its TGI is 3.13 µM.

And the GI50 [4]?
The GI50 was 1.7 µM.

And the TGI [4]?
The TGI was 4.23 µM.

What about the GI50 [5] of the same molecule?
The GI50 was 1.89 µM.

And the TGI [5]?
The TGI was 4.37 µM.

What about the GI50 [6] of the same molecule?
Its GI50 is 2.51 µM.

And the TGI [6]?
Its TGI is 5.8 µM.

Which GI50 [7] does the source give for `Cc1cc(NCc2cc(Nc3ccnc4cc(Cl)ccc34)ccc2F)nc(N2CCOCC2)n1` here?
The GI50 was 1.66 µM.

What about the TGI [7] of the same molecule?
Its TGI is 3.12 µM.

What about the GI50 [8] of the same molecule?
The GI50 was 1.46 µM.

What about the TGI [8] of the same molecule?
Its TGI is 6.89 µM.

What about the GI50 [9] of the same molecule?
Its GI50 is 3.89 µM.

And the TGI [9]?
The TGI was 21 µM.

What about the GI50 [10] of the same molecule?
Its GI50 is 1.52 µM.

And the TGI [10]?
The TGI was 3.21 µM.

What about the GI50 [2] of the same molecule?
Its GI50 is 2.53 µM.

What about the TGI [2] of the same molecule?
Its TGI is 34.6 µM.

And the GI50 [3]?
Its GI50 is 3.2 µM.

What about the TGI [3] of the same molecule?
The TGI was 12.5 µM.

And the GI50 [11]?
The GI50 was 3.18 µM.

What about the TGI [11] of the same molecule?
Its TGI is 23.9 µM.

What about the GI50 [12] of the same molecule?
The GI50 was 2.27 µM.

And the TGI [12]?
Its TGI is 5.44 µM.

What about the GI50 [4] of the same molecule?
Its GI50 is 1.77 µM.

And the TGI [4]?
The TGI was 3.82 µM.

What about the GI50 [13] of the same molecule?
The GI50 was 1.34 µM.

And the TGI [13]?
The TGI was 3.13 µM.

What about the GI50 [14] of the same molecule?
The GI50 was 2.07 µM.

What about the TGI [14] of the same molecule?
The TGI was 6.97 µM.

What about the GI50 [15] of the same molecule?
The GI50 was 2.21 µM.

What about the TGI [15] of the same molecule?
The TGI was 5.68 µM.

And the GI50 [16]?
The GI50 was 1.93 µM.

And the TGI [16]?
Its TGI is 5.11 µM.

What about the GI50 [17] of the same molecule?
The GI50 was 1.73 µM.

And the TGI [17]?
The TGI was 6.18 µM.

And the GI50 [18]?
Its GI50 is 2.01 µM.

What about the TGI [18] of the same molecule?
The TGI was 4.59 µM.

What about the GI50 [19] of the same molecule?
The GI50 was 2.12 µM.

And the TGI [19]?
The TGI was 6.15 µM.

What about the GI50 [20] of the same molecule?
Its GI50 is 1.83 µM.

What about the TGI [20] of the same molecule?
Its TGI is 4.51 µM.

What about the GI50 [21] of the same molecule?
The GI50 was 2.95 µM.

What about the TGI [21] of the same molecule?
The TGI was over 100 µM.

And the GI50 [22]?
The GI50 was 1.89 µM.

And the TGI [22]?
Its TGI is 5.61 µM.

What about the GI50 [23] of the same molecule?
The GI50 was 2.43 µM.

What about the TGI [23] of the same molecule?
Its TGI is 7.28 µM.

What about the GI50 [24] of the same molecule?
The GI50 was 2 µM.

And the TGI [24]?
The TGI was 4.77 µM.

And the GI50 [25]?
Its GI50 is 1.84 µM.

What about the TGI [25] of the same molecule?
The TGI was 4.39 µM.

What about the GI50 [26] of the same molecule?
Its GI50 is 2.34 µM.

And the TGI [26]?
Its TGI is 6.97 µM.

And the GI50 [27]?
Its GI50 is 1.53 µM.

What about the TGI [27] of the same molecule?
Its TGI is 2.95 µM.

What about the GI50 [28] of the same molecule?
Its GI50 is 2.45 µM.

What about the TGI [28] of the same molecule?
Its TGI is 6.97 µM.

What about the GI50 [29] of the same molecule?
Its GI50 is 3.07 µM.

And the TGI [29]?
The TGI was 13.6 µM.

And the GI50 [30]?
The GI50 was 2.28 µM.

What about the TGI [30] of the same molecule?
Its TGI is 7.65 µM.

And the GI50 [5]?
Its GI50 is 1.81 µM.

And the TGI [5]?
Its TGI is 5.58 µM.

And the GI50 [31]?
The GI50 was 3.08 µM.

And the TGI [31]?
Its TGI is 18 µM.

What about the GI50 [6] of the same molecule?
Its GI50 is 1.99 µM.

What about the TGI [6] of the same molecule?
Its TGI is 4.7 µM.

And the GI50 [32]?
Its GI50 is 1.7 µM.

What about the TGI [32] of the same molecule?
Its TGI is 3.36 µM.

And the GI50 [33]?
Its GI50 is 1.84 µM.

And the TGI [33]?
The TGI was 4.3 µM.

What about the GI50 [34] of the same molecule?
The GI50 was 3.79 µM.

And the TGI [34]?
Its TGI is 54.4 µM.

What about the GI50 [35] of the same molecule?
Its GI50 is 1.32 µM.

And the TGI [35]?
Its TGI is 2.79 µM.

What about the GI50 [36] of the same molecule?
Its GI50 is 1.81 µM.

And the TGI [36]?
Its TGI is 4.7 µM.

What about the GI50 [37] of the same molecule?
Its GI50 is 1.79 µM.

And the TGI [37]?
Its TGI is 4.26 µM.

And the GI50 [38]?
The GI50 was 1.96 µM.

And the TGI [38]?
Its TGI is 3.92 µM.

And the GI50 [39]?
Its GI50 is 1.95 µM.

And the TGI [39]?
The TGI was 4.05 µM.

What about the GI50 [40] of the same molecule?
The GI50 was 1.3 µM.

What about the TGI [40] of the same molecule?
Its TGI is 2.71 µM.
